From patent US10766869B2, “Triazoles for the treatment of demyelinating dieases” (Vertex Pharmaceuticals Incorporated, priority 2015, dated 2020)
Where two headings read alike, the source gives them in different places.

System: primary rat mixed cortical cells
Assay: In vitro myelination assay (MBP positive myelin strands, fold myelin pixels above background)
Assay type: cell-based
Settings: Rattus norvegicus; for fold induction at 1 µM: 1.0 μM compound; for fold induction at 10 µM: 10.0 μM compound
How it was run: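 Mixed cortical culture, P1 rat, 87,500-95,000 cells/well; compound present from seeding, refreshed days 6 and 10; 14 d, 37 °C, 5% CO2. Day 14: PFA fix, anti-MBP + Hoechst. Read-out: fold MBP myelin pixels over untreated, tested at 1.0 and 10.0 μM.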

[1] = relative to baseline of no added compound, read-out: Fold myelin pixels above background
[2] = relative to baseline of no added compound, read-out: Fold myelin pixels above background, 1.0 μM
[3] = relative to baseline of no added compound, read-out: Fold myelin pixels above background, 10.0 μM
[4] = read-out: Fold myelin pixels above background relative to baseline of no added compound

SMILES | fold induction at 1 µM [1] | fold induction at 10 µM [1] | other results
Cc1cc(Nc2ncn(-c3cnccn3)n2)cc([C@@]2(C)CNC(=O)O2)c1 (single isomer, unassigned) [Compound 603] | 10 to 100 | 10 to 100 | 
Cc1cc(Nc2ncn(-c3cc(C)cc(F)c3)n2)cc(N2CCN(C)CC2)c1 [Compound 424, 1-(3-fluoro-5-methyl-phenyl)-N-[3-methyl-5-(4-methylpiperazin-1-yl)phenyl]-1,2,4-triazol-3-amine] | 100 to 1000 | ≤ 1 | 
FC(F)c1cc(Nc2ncn(-c3ccccn3)n2)nc(N2CCN(C3COC3)CC2)c1 [Compound 532, 4-(difluoromethyl)-6-[4-(oxetan-3-yl)piperazin-1-yl]-N-[1-(2-pyridyl)-1,2,4-triazol-3-yl]pyridin-2-amine] | 10 to 100 | 10 to 100 | 
C1=C(c2cc(Nc3ncn(-c4ccccc4)n3)cc(C3=CCOC3)c2)COC1 [Compound 234, N-[3,5-bis(2,5-dihydrofuran-3-yl)phenyl]-1-phenyl-1,2,4-triazol-3-amine] |  |  | fold induction at 1 µM [2]: 1 to 10; fold induction at 10 µM [3]: 100 to 1000
FC(F)c1cc(Nc2ncn(-c3ccccc3)n2)cc(N2CCOCC2)c1 [Compound 392, N-[3-(difluoromethyl)-5-morpholino-phenyl]-1-phenyl-1,2,4-triazol-3-amine] | 100 to 1000 | 10 to 100 | 
COc1cc(Nc2ncn(-c3cccc(F)c3)n2)cc(N2CCN(C3COC3)CC2)c1 [Compound 258, 1-(3-fluorophenyl)-N-[3-methoxy-5-[4-(oxetan-3-yl)piperazin-1-yl]phenyl]-1,2,4-triazol-3-amine] |  |  | fold induction at 1 µM [2]: 100 to 1000; fold induction at 10 µM [3]: 1 to 10
Cc1cc(NC(=O)C2CC2)cc(Nc2ncn(-c3ccccc3)n2)c1 [Compound 1058, N-[3-methyl-5-[(1-phenyl-1,2,4-triazol-3-yl)amino]phenyl]cyclopropanecarboxamide] |  |  | fold induction at 1 µM [4]: 10 to 100; fold induction at 10 µM [4]: 10 to 100
Cc1cc(Nc2ncn(-c3cc(F)cc(F)c3)n2)cc(NC2COC2)c1 [Compound 240, N3-[1-(3,5-difluorophenyl)-1,2,4-triazol-3-yl]-5-methyl-N1-(oxetan-3-yl)benzene-1,3-diamine] |  |  | fold induction at 1 µM [2]: 100 to 1000; fold induction at 10 µM [3]: 1 to 10
Cc1cc(Nc2ncn(-c3cc(F)cc(F)c3)n2)cc(N2CC(N3CCO[C@H](C)C3)C2)c1 (single isomer, unassigned) [Compound 696] | 10 to 100 | 1 to 10 | 
Cc1cc(Nc2ncn(-c3cc(F)cc(F)c3)n2)cc(N2CCC(N3CCC(O)CC3)CC2)c1 [Compound 879, 1-[1-[3-[[1-(3,5-difluorophenyl)-1,2,4-triazol-3-yl]amino]-5-methyl-phenyl]-4-piperidyl]piperidin-4-ol] |  |  | fold induction at 1 µM [4]: ≤ 1; fold induction at 10 µM [4]: ≤ 1
Cc1cc(Nc2ncn(-c3cc(F)cc(F)c3)n2)cc(NC2CCN(CC3CCCO3)CC2)c1 (centres unmarked) [Compound 891, N3-[1-(3,5-difluorophenyl)-1,2,4-triazol-3-yl]-5-methyl-N1-[1-(tetrahydrofuran-2-ylmethyl)-4-piperidyl]benzene-1,3-diamine] |  |  | fold induction at 1 µM [4]: 1 to 10; fold induction at 10 µM [4]: ≤ 1
OCc1cc(Nc2ncn(-c3ccc(F)c(F)c3)n2)nc(N2CCN(C3COC3)CC2)c1 [Compound 713, [2-[[1-(3,4-difluorophenyl)-1,2,4-triazol-3-yl]amino]-6-[4-(oxetan-3-yl)piperazin-1-yl]-4-pyridyl]methanol] | 10 to 100 | 10 to 100 | 
Cc1cc(Nc2ncn(-c3cc(F)cc(F)c3)n2)cc(N2CCN3C(=O)CCC3C2)c1 (centres unmarked) [Compound 561, 2-[3-[[1-(3,5-difluorophenyl)-1,2,4-triazol-3-yl]amino]-5-methyl-phenyl]-1,3,4,7,8,8a-hexahydropyrrolo[1,2-a]pyrazin-6-one] | 100 to 1000 | 10 to 100 | 
